# Measurements: article PMC6927412, “PMP–diketopiperazine adducts form at the active site of a PLP dependent enzyme involved in formycin biosynthesis” (Chemical Communications (Cambridge, England), 2019)
# Assays:
# ForI [1] = target: T1, ForI (Streptomyces kaniharaensis, UniProt A0A5S8ZI02); assay: X-ray crystal structure, […] Å; type: binding; settings: crystals incubated with L-Glu for 20 min; non-covalent
# T1 construct: gene cof17; homodimer, active site from both monomers; residues 3 to 417 located in crystal
# T1 sequence (A0A5S8ZI02 1-423): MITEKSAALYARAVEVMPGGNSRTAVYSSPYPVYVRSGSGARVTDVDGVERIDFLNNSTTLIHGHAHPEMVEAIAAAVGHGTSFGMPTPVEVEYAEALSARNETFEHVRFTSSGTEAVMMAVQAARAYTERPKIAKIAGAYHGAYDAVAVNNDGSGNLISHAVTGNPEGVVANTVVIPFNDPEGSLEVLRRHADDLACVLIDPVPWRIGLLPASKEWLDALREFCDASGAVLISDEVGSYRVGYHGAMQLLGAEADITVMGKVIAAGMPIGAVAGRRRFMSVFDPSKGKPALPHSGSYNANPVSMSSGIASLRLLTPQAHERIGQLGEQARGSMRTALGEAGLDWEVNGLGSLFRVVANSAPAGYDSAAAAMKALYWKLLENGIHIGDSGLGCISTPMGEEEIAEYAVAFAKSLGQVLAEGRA
# ForI [2] = target: T1, ForI; assay: UV-vis, mass spectrometry and crystal structure of the adduct; type: binding; settings: covalent; reacts at PLP, bound species is the PMP-diketopiperazine adduct; 10 mM, pH 8, 4 °C
# ForI [3] = target: T1, ForI; assay: UV-vis spectrum of PLP cofactor; PMP form seen in crystal; type: biochemical; settings: amino donor half-reaction; L-Glu itself not seen in density
# ForI [4] = target: T1, ForI; assay: X-ray crystal structure, […] Å; mass spectrometry; type: binding; settings: pH 8
structure (smiles),measurement,setting,value
Cc1ncc(COP(=O)(O)O)c(CN)c1O [PMP],"X-ray crystal structure, 1.56 Å",ForI [1],"the pyridoxal co-factor is unattached to the enzyme, suggesting it to be PMP"
N[C@@H]1CONC1=O [D-cycloserine],"UV-vis, mass spectrometry and crystal structure of the adduct",ForI [2],Incubation of ForI with either D- or L-cycloserine immediately shows changes in the UV-vis spectrum
N[C@@H](CCC(=O)O)C(=O)O [L-Glu],UV-vis spectrum of PLP cofactor; PMP form seen in crystal,ForI [3],Incubating ForI with L-Glu shows a rapid change in the UV-vis spectrum
N[C@H]1CONC1=O [L-cycloserine],"UV-vis, mass spectrometry and crystal structure of the adduct",ForI [2],Incubation of ForI with either D- or L-cycloserine immediately shows changes in the UV-vis spectrum
Cc1ncc(COP(=O)(O)O)c(/C=N/OC[C@H]2NC(=O)[C@@H](CON)NC2=O)c1O [PMP–diketopiperazine from D-cycloserine],"X-ray crystal structure, 1.5 Å; mass spectrometry",ForI [4]; covalent adduct of PLP cofactor formed on incubation with 10 mM D-cycloserine,identified the formation of external aldimine PLP–diketopiperazine adducts
Cc1ncc(COP(=O)(O)O)c(/C=N/OC[C@@H]2NC(=O)[C@H](CON)NC2=O)c1O [PMP–diketopiperazine from L-cycloserine],"X-ray crystal structure, 1.5 Å; mass spectrometry",ForI [4]; covalent adduct of PLP cofactor formed on incubation with 10 mM L-cycloserine,identified the formation of external aldimine PLP–diketopiperazine adducts
